Results taken from patent EP4810494A1, “HPK1 DEGRADATION AGENT AND USE THEREOF IN FIELD OF MEDICINE” (Haisco Pharmaceutical Group Co., Ltd., priority 2023, dated 2025).
Where a name gives a salt, the structure may show the parent alone.

Tests used:
[1] = Pharmacokinetic test in mice; assay type: in vivo, ICR mice; conditions: mouse, plasma, po, i. g.
Experimental: Test example 6: Pharmacokinetic test in mice
Experimental objective: In this experiment, a single dose of test substances was administered to ICR mice intravenously and intragastrically, the concentrations of the test compounds in plasma of mice were measured, and the pharmacokinetic characteristics and bioavailability of the test compounds in mice were evaluated.
Experimental animals: Male ICR mice, 20-35 g, purchased from Chengdu Dossy Experimental Animals Co., Ltd. (SCXK (CHUAN) 2020-030).
Experimental method: On the day of the experiment, the ICR mice were randomly grouped according to their body weights. The animals were fasted but with water available overnight before the administration, and fed 4 h after the administration.
Sampling: Blood was taken from the orbits of the mice at specified time points, and placed in an EDTAK2 centrifuge tube. Centrifugation was performed at 5000 rpm at 4°C for 10 min, and the plasma was collected.
Time points for plasma collection in G1 and G1-2 groups: 0, 5 min, 15 min, 30 min, 1 h, 2 h, 4 h, 7 h, and 24 h.
Time points for plasma collection in G2 and G2-2 groups: 0, 5 min, 15 min, 30 min, 1 h, 2 h, 4 h, 7 h, and 24 h.
Before analysis and detection, all the samples were stored at -60°C or lower. The samples were analysed quantitatively by LC-MS/MS. Table 6-1 PK data of test compound drug in mice

HPK1 kinase [2] = biological target: T1, HPK1 kinase (Homo sapiens, UniProt Q92918); assay: HPK1 kinase assay (Km concentration ATP); assay type: biochemical; conditions: for IC50: ATP at Km concentration (working concentration: 9 µM); for inhibitory activity against HPK1 kinase (in words): Km concentration ATP, conclusion
T1 construct: purchased Carna 07-410
T1 sequence (Q92918 1-346 limits assumed): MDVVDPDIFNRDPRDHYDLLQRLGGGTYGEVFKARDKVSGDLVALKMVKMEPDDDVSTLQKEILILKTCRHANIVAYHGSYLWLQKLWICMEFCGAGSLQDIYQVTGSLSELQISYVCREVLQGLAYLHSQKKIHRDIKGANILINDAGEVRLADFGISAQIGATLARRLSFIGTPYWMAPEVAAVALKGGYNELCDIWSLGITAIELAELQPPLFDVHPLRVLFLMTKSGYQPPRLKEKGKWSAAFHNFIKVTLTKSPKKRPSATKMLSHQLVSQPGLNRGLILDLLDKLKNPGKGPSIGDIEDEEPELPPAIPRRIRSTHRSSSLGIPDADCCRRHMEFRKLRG
Experimental: Test example 3: HPK1 kinase assay (Km concentration ATP)
(§1) The kinase HPK1 (Carna, Cat.No 07-410) was prepared into 2× kinase solution using 1× kinase buffer. The substrate Fluorescein-PKC (Invitrogen, Cat. No. PV3506) and ATP (working concentration: 9 µM) (Sigma, Cat. No. 2383-5G) were prepared into 2× substrate solution using 1×kinase buffer. The detection reagent was diluted to 2-fold the final concentration using an antibody diluent. 100 nL of compounds at different concentrations and 5 µL of kinase solution were added to each well of a 384-well plate, and the mixture was incubated at room temperature for 10 minutes. After the incubation was completed, 5 µL of substrate solution was added to each well, and the resulting mixture was reacted at room temperature for 90 minutes. After the reaction was completed, 10 µL of detection reagent was added to each well to terminate the reaction, and the mixture was incubated at room temperature for 60 minutes. Fluorescence readings were detected using an Envision instrument with excitation at 320 nm and emission at 520 nm and 495 nm. IC50 value was calculated using XLFit excel add-in version 5.4.0.8 software. The calculation formula of the inhibition rate was shown in formula 3-1, where max is the Ratio of the DMSO control, min is the Ratio of the negative control without enzyme, and sample is the Ratio of the compound. Ratio = RFU520nm /RFU495nm [formula] Inhibition% = (max−sample)/(max−min) × 100% [formula] Table 3-1 Inhibitory activity of test compounds against HPK1 kinase

HPK1 protein = biological target: T2, HPK1 protein (Homo sapiens, UniProt Q92918); assay: Detection of HPK1 protein expression level in Jurkat cells (24 h); assay type: cell-based; conditions: 24 hours incubation
T2 construct: host or cells: Jurkat cells
T2 sequence (Q92918 whole entry): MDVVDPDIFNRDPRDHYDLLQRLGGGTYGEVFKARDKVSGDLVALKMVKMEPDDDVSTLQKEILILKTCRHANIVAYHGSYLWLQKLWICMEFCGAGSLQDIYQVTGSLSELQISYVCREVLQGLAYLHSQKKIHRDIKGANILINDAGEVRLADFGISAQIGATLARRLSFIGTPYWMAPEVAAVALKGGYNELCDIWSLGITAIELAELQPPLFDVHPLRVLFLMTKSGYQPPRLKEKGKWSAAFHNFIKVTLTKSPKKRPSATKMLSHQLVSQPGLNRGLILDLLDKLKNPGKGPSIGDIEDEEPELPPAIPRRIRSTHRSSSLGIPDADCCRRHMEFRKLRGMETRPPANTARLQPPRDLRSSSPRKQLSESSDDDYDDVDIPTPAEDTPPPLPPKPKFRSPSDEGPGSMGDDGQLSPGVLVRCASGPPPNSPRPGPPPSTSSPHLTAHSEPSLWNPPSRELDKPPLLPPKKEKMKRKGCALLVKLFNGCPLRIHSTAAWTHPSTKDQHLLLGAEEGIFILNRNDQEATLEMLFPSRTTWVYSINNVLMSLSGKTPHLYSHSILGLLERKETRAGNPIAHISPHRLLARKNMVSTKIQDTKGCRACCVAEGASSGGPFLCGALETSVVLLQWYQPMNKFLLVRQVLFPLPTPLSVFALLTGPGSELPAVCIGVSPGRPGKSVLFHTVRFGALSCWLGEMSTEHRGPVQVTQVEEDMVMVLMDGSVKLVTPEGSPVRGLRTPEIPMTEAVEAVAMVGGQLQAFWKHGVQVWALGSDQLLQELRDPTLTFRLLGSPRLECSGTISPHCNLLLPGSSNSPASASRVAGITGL
Experimental: Test example 4: Detection of HPK1 protein expression level in Jurkat cells (24 h)
Jurkat cells from ATCC were placed in a RPMI-1640 complete medium (supplemented with 10% FBS and 1% penicillin-streptomycin solution) and cultured at 37°C and 5% CO2. The cells in the logarithmic growth phase were collected, the cell density was adjusted to 5 × 10^5 cells/well with the culture medium, and the cells were added to a 6-well cell culture plate at a volume of 1 mL/well. The compound to be tested was prepared to 2-fold the final concentration, 1 mL of the compounds at different concentrations were added to administration wells, a medium containing 0.2% DMSO was added to control wells, and the plate was incubated at 37°C and 5% CO2 for 24 hours. The cells were collected into a 1.5 mL centrifuge tube, 30 µL of RIPA lysis buffer (containing 1X protease inhibitor cocktail) was added, and the cells were lysed on ice for 15 minutes and centrifuged at 12000 rpm/min at 4°C for 10 minutes. The supernatant was collected and the protein content was determined using the BCA method. The protein sample to be tested was diluted to 0.2 mg/mL, HPK1 was detected using a fully automated protein expression quantitative analyser (ProteinSimple), and the internal reference protein was β-actin (all antibodies were from CST). The software (Compass for SW) of the fully automated protein expression quantitative analyser was used to process the raw data and calculate the peak area after internal reference normalisation and the HPK1 degradation rate relative to the control group. The HPK1 degradation rate was calculated according to formula 4-1, where Aadministration well is the relative peak area of the administration group after internal reference normalisation, and Acontrol well is the relative peak area of the vehicle control group after internal reference normalisation. DC50 values were calculated using a four-parameter non-linear fitting model in Graphpad 8.3.0 software. HPK1_degradation % = 100−(Aadministration well/Acontrol well×100%) [formula] Table 4-1 Degradation activity of test compounds against HPK1 protein in Jurkat cells (24 h)

[3] = Pharmacokinetic test in rats; assay type: in vivo, SD rats; conditions: rat, plasma
Experimental: Test example 7: Pharmacokinetic test in rats
Experimental animals: Male SD rats, 180-200 g, purchased from Chengdu Dossy Experimental Animals Co., Ltd. with the laboratory animal production license number of SCXK (CHUAN) 2020-030.
Experimental design: on the day of the experiment, the SD rats were randomly grouped according to their body weights. The animals were fasted but with water available overnight before the administration, and fed 4 h after the administration.
Vehicle for intragastric administration: 5% Solutol+5% TPGS+30% PEG400+60% (20% SBE-β-CD)
Blood was taken from the orbits of the […] at specified time points, and placed in an EDTAK2 centrifuge tube. Centrifugation was performed at 5000 rpm for 10 min, and the plasma was collected.
Blood sampling time points for the intravenous administration group were: 0, 5 min, 15 min, 30 min, 1 h, 2 h, 4 h, 6 h, 8 h and 24 h; blood sampling time points for the intragastric administration group were: 0, 5 min, 15 min, 30 min, 1 h, 2 h, 4 h, 6 h, 8 h and 24 h. Before analysis and detection, all the samples were stored at - 60°C or lower. The samples were analysed quantitatively by LC-MS/MS. Table 7-1 PK data of test compound drug in rats

[4] = test system: IL-2 secretion by T cells; assay: IL-2 detection assay in cells (ELISA, pan-T cells isolated from PBMCs); assay type: cell-based; conditions: IL-2, CD3 antibody-coated plate, 24 hours; for Maximum activation fold: maximum activation rate/control group
Experimental: 9. IL-2 detection assay in cells
Activating effect of compounds on IL-2 secretion by T cells was evaluated using the ELISA method. Frozen PBMCs were thawed, and pan-T cells were isolated and purified using a T cell sorting kit (Stemcell, 17951). The cells were resuspended in 1640 complete medium and incubated in a 37°C&5%CO2 incubator overnight. A 96-well plate coated with an anti-human CD3 antibody (Thermo, 16-0037-38) at a final concentration of 5 µg/mL was incubated at 37°C for 2 h. The overnight-cultured cells were collected by centrifugation, the supernatant was discarded, and the cells were resuspended in 1640 complete medium, and seeded in the CD3 antibody-coated 96-well plate at a density of 10^5cells/well. The compounds at different concentrations were added, and the mixture was incubated in a 37°C&5%CO2 incubator for 24 hours. After the incubation was completed, the resulting mixture was centrifuged at 1000 rpm for 1 minute to collect the supernatant, and IL-2 was detected according to the ELISA instructions. DMSO without compounds was used as the control group to calculate the activation rate of the compounds, and prism was used to fit the activation curve. Maximum activation fold = maximum activation rate/control group. Table 9-1 Results of IL-2 activation by test compounds

HPK1 kinase [5] = biological target: T1, HPK1 kinase; assay: HPK1 kinase assay (1 mM ATP); assay type: biochemical
Experimental: Test example 5: HPK1 kinase assay (1 mM ATP)
as §1, with “1 mM)” for “9 µM)”, “5-1, wherein” for “3-1, where”, “5-1” for “3-1”

Work on `O=C1CCC(c2ccc(N3CCN(CC4CCN(c5ccc(Nc6ccc(-c7cnc8cc(F)ccn78)c7c6C(=O)NC7)nc5)CC4)CC3)cc2F)C(=O)N1` (racemic) [Trifluoroacetic acid salt of compound 1] yielded an AUC ([1]; 10 mg/kg) of 14700 ng·h/mL, a Cmax ([1]; 10 mg/kg) of 1070 ng/mL and a half-life ([1]; 10 mg/kg) of 6.73 h. The IC50 (HPK1 kinase [2]) was under 10 nM, the “inhibitory activity against HPK1 kinase (in words)” value (HPK1 kinase [2]) was “good inhibitory activity” and the DC50 (HPK1 protein) was under 20 nM.

In the case of `O=C1CCC(c2cc3c(cc2F)N2CCN(CC4CCN(c5ccc(Nc6ccc(-c7cnc8cc(F)ccn78)c7c6C(=O)NC7)nc5)CC4)C[C@H]2CC3)C(=O)N1` (stereo partly drawn) [Trifluoroacetic acid salt of compound 3], the IC50 (HPK1 kinase [2]) is reported as under 10 nM, the “inhibitory activity against HPK1 kinase (in words)” value (HPK1 kinase [2]) is reported as “good inhibitory activity” and the DC50 (HPK1 protein) is reported as under 20 nM.

`O=C1CCN(c2cc3c(cc2F)N2CCN(C4CC5(CCN(c6ccc(Nc7ccc(-c8cnc9cc(F)ccn89)c8c7C(=O)NC8)nc6)CC5)C4)C[C@H]2CC3)C(=O)N1` [Trifluoroacetic acid salt of compound 19] gave an AUC ([1]; 10 mg/kg) of 50500 ng·h/mL, a Cmax ([1]; 10 mg/kg) of 3700 ng/mL and a half-life ([1]; 10 mg/kg) of 6.68 h. For the same compound, the DC50 (HPK1 protein) was under 20 nM, the clearance ([3]; IV, 2.5 mg/kg) was 11 mL/min/kg and the half-life ([3]; IV, 2.5 mg/kg) was 7.66 h. For the same compound, the AUC ([3]; po, i. g., 10 mg/kg) was 5860 ng·h/mL, the Cmax ([3]; po, i. g., 10 mg/kg) was 465 ng/mL and the half-life ([3]; po, i. g., 10 mg/kg) was 7.17 h. For the same compound, the “Activation fold at 100 nM concentration” value [4] was over 10, the Maximum activation fold [4] was over 10 and the IC50 (HPK1 kinase [5]) was under 50 nM.

Work on `N#Cc1ccn2c(-c3ccc(Nc4ccc(N5CCC(CN6CCN7c8cc(F)c(N9CCC(=O)NC9=O)cc8CC[C@@H]7C6)CC5)cn4)c4c3CNC4=O)cnc2c1` [Trifluoroacetic acid salt of compound 31] yielded an AUC ([1]; 5 mg/kg) of 6500 ng·h/mL, a Cmax ([1]; 5 mg/kg) of 553 ng/mL and a half-life ([1]; 5 mg/kg) of 3.03 h. For the same compound, the DC50 (HPK1 protein) was under 20 nM, the clearance ([3]; IV, 1 mg/kg) was 5.38 mL/min/kg and the half-life ([3]; IV, 1 mg/kg) was 4.88 h. The AUC ([3]; po, i. g., 5 mg/kg) was 4390 ng·h/mL, the Cmax ([3]; po, i. g., 5 mg/kg) was 464 ng/mL and the half-life ([3]; po, i. g., 5 mg/kg) was 4.48 h. The “Activation fold at 100 nM concentration” value [4] was over 10, the Maximum activation fold [4] was over 10 and the IC50 (HPK1 kinase [5]) was under 50 nM.

Work on `Cn1ccc2c(-c3ccc(Nc4ccc(N5CCC(CN6CCN7c8cc(F)c(N9CCC(=O)NC9=O)cc8CC[C@@H]7C6)CC5)cn4)c4c3CNC4=O)ccnc21` [Trifluoroacetic acid salt of compound 32] yielded an AUC ([1]; 10 mg/kg) of 15800 ng·h/mL, a Cmax ([1]; 10 mg/kg) of 1250 ng/mL and a half-life ([1]; 10 mg/kg) of 4.37 h. For the same compound, the DC50 (HPK1 protein) was under 20 nM, the Maximum activation fold [4] was over 10 and the IC50 (HPK1 kinase [5]) was under 50 nM.

For `Cn1ccc2c(-c3ccc(Nc4ccc(N5CCC(CN6CCN7c8cc(F)c(N9CCC(=O)NC9=O)cc8CC[C@H]7C6)CC5)cn4)c4c3CNC4=O)ccnc21` [Trifluoroacetic acid salt of compound 35], the AUC ([1]; 10 mg/kg) was 37100 ng·h/mL, the Cmax ([1]; 10 mg/kg) was 2650 ng/mL and the half-life ([1]; 10 mg/kg) was 12.1 h. The DC50 (HPK1 protein) was under 20 nM, the Maximum activation fold [4] was over 10 and the IC50 (HPK1 kinase [5]) was under 50 nM.

`N#Cc1ccn2c(-c3ccc(Nc4ccc(N5CCC(CN6CCN7c8cc(F)c(N9CCC(=O)NC9=O)cc8CC[C@H]7C6)CC5)cn4)c4c3CNC4=O)cnc2c1` [Trifluoroacetic acid salt of compound 39] gave an AUC ([1]; 10 mg/kg) of 25600 ng·h/mL, a Cmax ([1]; 10 mg/kg) of 2070 ng/mL and a half-life ([1]; 10 mg/kg) of 3.75 h. For the same compound, the DC50 (HPK1 protein) was under 20 nM, the clearance ([3]; IV, 2.5 mg/kg) was 6.58 mL/min/kg and the half-life ([3]; IV, 2.5 mg/kg) was 4.21 h. The AUC ([3]; po, i. g., 10 mg/kg) was 7260 ng·h/mL, the Cmax ([3]; po, i. g., 10 mg/kg) was 777 ng/mL and the half-life ([3]; po, i. g., 10 mg/kg) was 4.55 h. For the same compound, the “Activation fold at 100 nM concentration” value [4] was over 10, the Maximum activation fold [4] was over 10 and the IC50 (HPK1 kinase [5]) was under 50 nM.
